Test results reported in publication PMC9898759, “The Saccharomyces cerevisiae Yta7 ATPase hexamer contains a unique bromodomain tier that functions in nucleosome disassembly” (The Journal of Biological Chemistry, 2022).

Key:
[1] = Malachite Green ATPase assay of Yta7; format: biochemical; conditions: Malachite Green phosphate assay, 2 mM ATP, 25 mM Hepes pH 7.6, 2 mM MgCl2, 150 mM KCl, 1 mM DTT, room temperature 1 h, A620; three independent experiments; Fig. S1C
Experimental: The Malachite Green Phosphate assay kit (Sigma–Aldrich) was used to measure the ATP hydrolysis rate of Yta7 present in different nucleotides. Yta7 was incubated in assay buffer (25 mM Hepes [pH 7.6], 2 mM MgCl2, 150 mM KCl, and 1 mM DTT) with or without histone-3 peptide (1–24 amino acids). Either 2 mM ATP or 2 mM ATPγS or 2 mM ADP (negative control) was added to initiate the reaction at room temperature for 1 h. Absorbance at 620 nm was measured in a Molecular Devices SpectraMax M2e microplate reader.

Yta7 = assay: AlphaScreen binding of biotinylated H3 N-tail peptide (unmodified or acetylated) to full-length Yta7; parameters: species or system Saccharomyces cerevisiae; conditions: for binding to Yta7: 50 nM 10xHis-3xFlag-Yta7, 50 nM biotinylated H3 (1–22 amino acid) peptide, 50 mM Mops pH 7.4, 100 mM NaCl, BSA 0.1 mg/ml, on ice 1.5 h
Experimental: (§1) We performed AlphaScreen assays using a 6xHis detection kit (PerkinElmer). The biotinylated unmodified and the all-four-lysine acetylated H3 peptide (1–22 amino acids) were synthesized by GenScript. We individually mixed the purified 50 nM 10xHis-3xFlag-Yta7, 10xHis-3xFlag-Yta7ΔBRD, 10xHis-3xFlag-Yta7ΔBIMΔBRD, 6xHis-MBP-BIM, 6xHis-MBP-BRD, and the complex of 6xHis-MBP-BRD and MBP-BIM with 50 nM biotinylated and unmodified or acetylated H3 (1–22 amino acid) peptides, respectively, and incubated the mixtures on ice for 1.5 h with the streptavidin-coated donor beads (5 μg/ml) and nickel-chelated acceptor beads (5 μg/ml) in 50 mM Mops (pH 7.4), 100 mM NaCl, and bovine serum albumin (0.1 mg/ml). For nucleosome-binding assay, we used 50 nM 10xHis-3xFlag-Yta7 and 100 nM biotinylated human nucleosome. We incubated the mixture for 2 h on ice with the same concentration donor and acceptor beads. The donor beads contain a photosensitizer that converts ambient oxygen into short-lived singlet oxygen upon 680 nm light activation. When the acceptor beads are brought close enough to the donor beads by interaction between His-tagged proteins and biotinylated peptides, singlet oxygen can diffuse from the donor to the acceptor beads to transfer the energy to the thioxene derivatives of the acceptor beads, resulting in light emission at 520 to 620 nm range.

Yta7_ΔBRD = assay: AlphaScreen binding of H3 peptide to Yta7 lacking BRD; parameters: species or system Saccharomyces cerevisiae; conditions: 50 nM construct (954–1132 deleted), 50 nM biotinylated H3 (1–22), pH 7.4, on ice 1.5 h, n = 3, Fig. S9B
Experimental: as §1

[2] = test system: complex of 6xHis-MBP-BRD and MBP-BIM; assay: AlphaScreen binding of H3 peptide to BRD and BIM together; parameters: species or system Saccharomyces cerevisiae
Experimental: as §1

6xHis-MBP-BIM = assay: AlphaScreen binding of H3 peptide to MBP-fused BIM; parameters: species or system Saccharomyces cerevisiae; conditions: n = 3, Fig. S9D
Experimental: as §1

Yta7_ΔBIM ΔBRD = assay: AlphaScreen binding of H3 peptide to Yta7 lacking BIM and BRD; parameters: species or system Saccharomyces cerevisiae; conditions: 50 nM construct (320–350 and 954–1132 deleted), 50 nM biotinylated H3 (1–22), pH 7.4, on ice 1.5 h, n = 3, Fig. S9B
Experimental: as §1

[3] = AlphaScreen, three independent experiments in triplicate

## Yta7: full-length S. cerevisiae Yta7 AAA+ ATPase hexamer, 10xHis and 3xFLAG tagged
[1]
  ATP hydrolysis: hydrolyzed ATP

## 24-residue H3 N-tail: unmodified H3 peptides (1–24 amino acids) (GenScript)
Yta7; 24-residue H3 N-tail, Fig. S1, C and D
  interaction with Yta7 (24-residue H3 N-tail): interacted with

## acetylated H3 peptide (1–22 amino acids): biotinylated all-four-lysine acetylated H3 peptide (1–22 amino acids), synthesized by GenScript
Yta7; [3]
  binding to Yta7: bound Yta7

## unmodified H3 peptide (1–22 amino acids)
Yta7_ΔBRD
  binding to Yta7_ΔBRD: neither Yta7_ΔBRD nor Yta7_ΔBIM ΔBRD bind
[2]; BRD–BIM complex vs full-length Yta7 hexamer
  binding signal to BRD–BIM relative to Yta7 hexamer: an order of magnitude weaker
[2]; complex of 6xHis-MBP-BRD and MBP-BIM vs 6xHis-MBP-BRD, 50 nM biotinylated H3 (1–22), pH 7.4, n = 3, Fig. S9D
  binding signal to BIM and BRD together relative to BRD alone: stronger than BRD alone
Yta7; [3]
  binding to Yta7: bound Yta7
Yta7; AlphaScreen, 50 nM Yta7, 50 nM biotinylated H3 (1–22) peptides, pH 7.4, on ice 1.5 h, means of three independent experiments performed in triplicate, Fig. 2H
  binding signal relative to the acetylated version: five times stronger
Yta7; AlphaScreen, biotinylated H3 (1-22 aa), in the presence of ADP or ATPγS, three independent experiments in triplicate, Fig. S1E
  affinity / binding in the presence of ADP or ATPγS: unaffected
Yta7; AlphaScreen, unmodified compared with acetylated H3 (1–22) peptide, qualitative, listed as unmodified peptide
  relative affinity, unmodified vs acetylated H3 peptide: higher affinity
6xHis-MBP-BIM; 50 nM 6xHis-MBP-BIM, 50 nM biotinylated H3 (1–22), pH 7.4, on ice 1.5 h
  binding signal to BIM alone: weak binding signal
6xHis-MBP-BIM; 6xHis-MBP negative control, compared with 6xHis-MBP-BRD
  binding signal to BIM alone relative to MBP control and BRD alone: above the MBP control but weaker than BRD alone
Yta7_ΔBIM ΔBRD
  binding to Yta7_ΔBIM ΔBRD: neither Yta7_ΔBRD nor Yta7_ΔBIM ΔBRD bind
